This passage reports IC50 results from US20230192677A1, “CYP11A1 INHIBITORS” (ORION CORPORATION, priority 2020, published 2023).

Molecules are shown by their SMILES.

The experiment addresses T1, CYP11A1 (Homo sapiens, UniProt P05108).
T1 construct: human H295R adrenocortical carcinoma cell line was used as source of enzyme; endogenous in cells; host or cells: H295R human adrenocortical carcinoma cells
T1 sequence (P05108 40-521): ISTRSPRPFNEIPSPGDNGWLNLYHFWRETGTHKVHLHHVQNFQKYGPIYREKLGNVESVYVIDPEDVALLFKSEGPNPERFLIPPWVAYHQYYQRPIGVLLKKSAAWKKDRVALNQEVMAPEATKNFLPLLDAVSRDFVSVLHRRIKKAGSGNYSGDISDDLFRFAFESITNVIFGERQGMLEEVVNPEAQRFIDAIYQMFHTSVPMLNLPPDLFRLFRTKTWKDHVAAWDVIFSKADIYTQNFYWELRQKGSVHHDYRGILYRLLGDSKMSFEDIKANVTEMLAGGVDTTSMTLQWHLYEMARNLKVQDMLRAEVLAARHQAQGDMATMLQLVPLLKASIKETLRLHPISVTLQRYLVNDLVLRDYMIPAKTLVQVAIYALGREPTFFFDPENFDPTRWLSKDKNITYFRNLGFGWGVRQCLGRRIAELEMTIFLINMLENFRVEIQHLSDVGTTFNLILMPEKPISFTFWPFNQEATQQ
Put plainly: CYP11A1 inhibition, isocaproic acid release assay (IARA) in H295R cells. To be noted: human H295R adrenocortical carcinoma cell line, three days, 3 nM [24,25-3H]-labelled cholesterol; read-out: IC50 on CYP11A1 inhibition (Group). In kind it is cell-based. As for the experimental part:
The ability of the test compounds to inhibit conversion of cholesterol to pregnenolone and isocaproic acid was measured by modification of isocaproic acid release assay (IARA) described by Ruangwises et al. (Biology of Reproduction 1991; 45(1):143-50) except that human H295R adrenocortical carcinoma cell line was used as source of enzyme and extraction was done with dextran-coated charcoal suspension (Isomaa, V. et al., Endocrinology 1982; 111(3):833-843). […] To determine the half maximal inhibitory concentration (IC50) of the test compounds on CYP11A1 inhibition, the cells were treated for three days with increasing concentrations of the test compounds in the presence of 3 nM [24,25-3H]-labelled cholesterol (American Radiolabelled Chemicals). The final DMSO concentration was 1%. Cell culture medium was extracted with dextran-coated charcoal suspension and the radiolabelled isocaproic acid was determined by mixing 100 μl of supernatant fraction in 200 μl of scintillation fluid (OptiPhase SuperMix, Perkin Elmer). Radioactivity was measured using a Microbeta scintillation counter (1450 MicroBeta Trilux, Wallac). All the test compounds were studied at 10 concentrations in duplicates.
Regarding `CS(=O)(=O)N1CCC(COc2coc(CN3Cc4ccc(-c5ccon5)cc4C3)cc2=O)CC1` [Compound 5, 2-((5-(Isoxazol-3-yl)isoindolin-2-yl)methyl)-5-((1-(methylsulfonyl)piperidin-4-yl)methoxy)-4H-pyran-4-one], the IC50 was less than 100 nM. Regarding `CS(=O)(=O)c1cc(C(N2Cc3ccccc3C2)C(F)(F)F)ccc1OCC1CCN(S(C)(=O)=O)CC1` (centres unmarked) [Compound 21, 2-(2,2,2-Trifluoro-1-(3-(methylsulfonyl)-4-((1-(methylsulfonyl)piperidin-4-yl)methoxy)phenyl)ethyl)isoindoline], the 50% inhibitory concentration (IC50) is 101 to 200 nM. For `CS(=O)(=O)c1cc(CN2Cc3ccc(-c4ncco4)cc3C2)ccc1OCC1CCN(S(C)(=O)=O)CC1` [Compound 13b, 2-(2-(3-(Methylsulfonyl)-4-((1-(methylsulfonyl)piperidin-4-yl)methoxy)-benzyl)isoindolin-5-yl)oxazole], the IC50 is less than 100 nM. Then `N#Cc1ccc(N2CC3(CC(COc4coc(CN5CCc6ccccc6C5)cc4=O)C3)C2)nc1` [Compound 51, 6-(6-(((6-((3,4-Dihydroisoquinolin-2(1H)-yl)methyl)-4-oxo-4H-pyran-3-yl)oxy)-methyl)-2-azaspiro[3.3]heptan-2-yl)nicotinonitrile], with 201 to 2000 nM; and `CC(=O)[C@H]1CC[C@H](COc2ccc(CN3Cc4ccccc4C3)cc2S(C)(=O)=O)CC1` [Compound 67, 1-((1r,4r)-4-((4-(Isoindolin-2-ylmethyl)-2-(methylsulfonyl)phenoxy)methyl)-cyclohexyl)ethan-1-one], with less than 100 nM.

Regarding `CS(=O)(=O)c1cc(CN2Cc3cccc(F)c3C2)ccc1OCC1CCN(S(C)(=O)=O)CC1` [Compound 105, 4-Fluoro-2-(3-(methylsulfonyl)-4-((1-(methylsulfonyl)piperidin-4-yl)methoxy)-benzyl)isoindoline], the IC50 was less than 100 nM. Then `CS(=O)(=O)c1ccc(COc2ccc(CN3Cc4ccccc4C3)cc2S(C)(=O)=O)cc1F` [Compound 81, 2-(4-((3-Fluoro-4-(methylsulfonyl)benzyl)oxy)-3-(methylsulfonyl)benzyl)-isoindoline], with 101 to 200 nM. Then `O=c1cc(CN2CCc3ccccc3C2)occ1OCC1CC2(CCN(c3ncccn3)CC2)C1` [Compound 48, 2-((3,4-Dihydroisoquinolin-2(1H)-yl)methyl)-5-((7-(pyrimidin-2-yl)-7-azaspiro-[3.5]nonan-2-yl)methoxy)-4H-pyran-4-one], with 101 to 200 nM. The result for `CS(=O)(=O)c1cc(CN2Cc3ccccc3C2)ccc1OCC1CCN(S(=O)(=O)C2COC2)CC1` [Compound 75, 2-(3-(Methylsulfonyl)-4-((1-(oxetan-3-ylsulfonyl)piperidin-4-yl)methoxy)-benzyl)isoindoline] reads less than 100 nM; that for `CS(=O)(=O)c1cc(CN2Cc3ccccc3C2)ccc1OCC1CCC(C(=O)N2CCC2)CC1` (centres unmarked) [Compound 80, Azetidin-1-yl(4-((4-(isoindolin-2-ylmethyl)-2-(methylsulfonyl)phenoxy)-methyl)cyclohexyl)methanone], 101 to 200 nM; that for `O=c1cc(CN2CCc3ccccc3C2)occ1OCC1CC2(C1)CN(S(=O)(=O)c1ccc(F)cc1)C2` [Compound 58, 2-((3,4-Dihydroisoquinolin-2(1H)-yl)methyl)-5-((2-((4-fluorophenyl)sulfonyl)-2-azaspiro[3.3]heptan-6-yl)methoxy)-4H-pyran-4-one], 101 to 200 nM. Turning to `CS(=O)(=O)c1cc(CN2Cc3ccccc3C2)ccc1OCc1ccc([S@@](C)(=N)=O)cc1` [Compound 96, (S)-Imino(4-((4-(isoindolin-2-ylmethyl)-2-(methylsulfonyl)phenoxy)methyl)-phenyl)(methyl)-λ^6-sulfanone], the IC50 is less than 100 nM. Then `O=c1cc(CN2CCc3ccccc3C2)occ1OC1CC2(CCN(S(=O)(=O)c3cccnc3)CC2)C1` [Compound 54, 2-((3,4-Dihydroisoquinolin-2(1H)-yl)methyl)-5-((7-(pyridin-3-ylsulfonyl)-7-azaspiro[3.5]nonan-2-yl)oxy)-4H-pyran-4-one], with 201 to 2000 nM; and `CS(=O)(=O)N1CCC(COc2coc(C(N3Cc4ccccc4C3)C(F)(F)F)cc2=O)CC1` (centres unmarked) [Compound 20, 5-((1-(Methylsulfonyl)piperidin-4-yl)methoxy)-2-(2,2,2-trifluoro-1-(isoindolin-2-yl)ethyl)-4H-pyran-4-one], with 201 to 2000 nM. Then `CC[S@@](=N)(=O)c1ccc(COc2ccc(CN3Cc4ccccc4C3)cc2S(C)(=O)=O)cc1` [Compound 98, (R)-Ethyl(imino)(4-((4-(isoindolin-2-ylmethyl)-2-(methylsulfonyl)phenoxy)-methyl)phenyl)-λ^6-sulfanone], with less than 100 nM; and `CS(=O)(=O)c1cc(CN2Cc3ccccc3C2)ccc1OCC1CCN(S(C)(=O)=O)CC1` [Compound 65, 2-(3-(Methylsulfonyl)-4-((1-(methylsulfonyl)piperidin-4-yl)methoxy)benzyl)-isoindoline], with less than 100 nM; and `CC(C)(O)c1ccc(COc2coc(CN3Cc4ccccc4C4(CCCC4)C3)cc2=O)cc1` [Compound 104, 2-((1′H-Spiro[cyclopentane-1,4′-isoquinolin]-2′(3′H)-yl)methyl)-5-((4-(2-hydroxypropan-2-yl)benzyl)oxy)-4H-pyran-4-one], with 101 to 200 nM. Then `CN(C)C(=O)[C@H]1CC[C@H](COc2ccc(CN3Cc4ccccc4C3)cc2S(C)(=O)=O)CC1` [Compound 79, (1r,4r)-4-((4-(Isoindolin-2-ylmethyl)-2-(methylsulfonyl)phenoxy)methyl)-N,N-dimethylcyclohexane-1-carboxamide], with less than 100 nM; and `CS(=O)(=O)c1cc(CN2Cc3ccccc3C2)ccc1OCc1ccc([S@](C)(=N)=O)cc1` [Compound 95, (R)-Imino(4-((4-(isoindolin-2-ylmethyl)-2-(methylsulfonyl)phenoxy)methyl)-phenyl)(methyl)-λ^6-sulfanone], with 101 to 200 nM. As for `CN(C)C(=O)c1ccc(COc2ccc(CN3Cc4ccccc4C3)cc2S(C)(=O)=O)cc1` [Compound 68, 4-((4-(Isoindolin-2-ylmethyl)-2-(methylsulfonyl)phenoxy)methyl)-N,N-dimethylbenzamide], the half-maximal inhibitory concentration (IC50) was less than 100 nM. Then `CS(=O)(=O)c1cc(CN2Cc3ccccc3C2)ccc1OCC1CCOCC1` [Compound 83, 2-(3-(Methylsulfonyl)-4-((tetrahydro-2H-pyran-4-yl)methoxy)benzyl)isoindoline], with 201 to 2000 nM; and `CS(=O)(=O)N1CC2(CC(COc3coc(CN4CCc5ccccc5C4)cc3=O)C2)C1` [Compound 62, 2-((3,4-Dihydroisoquinolin-2(1H)-yl)methyl)-5-((2-(methylsulfonyl)-2-azaspiro[3.3]heptan-6-yl)methoxy)-4H-pyran-4-one], with 201 to 2000 nM.

On to `CS(=O)(=O)c1cc(CN2Cc3ccccc3C2)ccc1OCc1ccc(S(=O)(=O)N2CC(O)C2)cc1` [Compound 77, 1-((4-((4-(Isoindolin-2-ylmethyl)-2-(methylsulfonyl)phenoxy)methyl)phenyl)-sulfonyl)azetidin-3-ol], for which the IC50 is less than 100 nM.
